How the values were obtained:
[1] = xn = mol fraction of the nth substance listed; details: 101 kPa, Liquid, Vibrating tube method
[2] = molar heat capacity at constant pressure; xn = mol fraction of the nth substance listed; details: 101 kPa, Liquid, Small sample (50 mg) DSC
[3] = excess molar enthalpy (molar enthalpy of mixing); xn = mol fraction of the nth substance listed; details: 303.15 K, 101 kPa, Liquid, Calvet calorimetry

CCOS(=O)(=O)[O-].CCn1cc[n+](C)c1 [1-ethyl-3-methylimidazolium ethyl sulfate] + CCO
Details | mass density, [1] [kg/m3] | molar heat capacity at constant pressure, [2] [J/K/mol]
293.15 K, x1 = 0.0157 | 813.7 | 114.9
293.15 K, x1 = 0.05 | 860 | –
293.15 K, x1 = 0.0523 | 862.6 | 124.6
293.15 K, x1 = 0.0978 | 913.4 | 137.1
293.15 K, x1 = 0.0991 | 914.6 | –
293.15 K, x1 = 0.1944 | 996 | 163.7
293.15 K, x1 = 0.3073 | 1063.7 | 194.6
293.15 K, x1 = 0.4109 | 1109.6 | 223.4
293.15 K, x1 = 0.5084 | 1143.2 | 250.8
293.15 K, x1 = 0.5927 | 1167 | 274.9
293.15 K, x1 = 0.6995 | 1191.8 | 305.4
293.15 K, x1 = 0.7883 | 1208.9 | 331.1
293.15 K, x1 = 0.8797 | 1223.9 | 357.4
293.15 K, x1 = 0.9388 | 1232.5 | 374.4
298.15 K, x1 = 0.0157 | 809.5 | 116.8
298.15 K, x1 = 0.05 | 855.9 | –
298.15 K, x1 = 0.0523 | 858.5 | 126.2
298.15 K, x1 = 0.0978 | 909.4 | 138.5
298.15 K, x1 = 0.0991 | 910.6 | –
298.15 K, x1 = 0.1944 | 992.1 | 165
298.15 K, x1 = 0.3073 | 1060 | 195.9
298.15 K, x1 = 0.4109 | 1105.9 | 224.8
298.15 K, x1 = 0.5084 | 1139.6 | 252.3
298.15 K, x1 = 0.5927 | 1163.4 | 276.5
298.15 K, x1 = 0.6995 | 1188.3 | 307.2
298.15 K, x1 = 0.7883 | 1205.4 | 333
298.15 K, x1 = 0.8797 | 1220.5 | 359.4
298.15 K, x1 = 0.9388 | 1229.1 | 376.5
303.15 K, x1 = 0.0157 | 805.3 | 118.6
303.15 K, x1 = 0.05 | 851.8 | –
303.15 K, x1 = 0.0523 | 854.4 | 127.9
303.15 K, x1 = 0.0978 | 905.3 | 139.9
303.15 K, x1 = 0.0991 | 906.6 | –
303.15 K, x1 = 0.1944 | 988.3 | 166.3
303.15 K, x1 = 0.3073 | 1056.3 | 197.2
303.15 K, x1 = 0.4109 | 1102.3 | 226.3
303.15 K, x1 = 0.5084 | 1136 | 254
303.15 K, x1 = 0.5927 | 1159.9 | 278.3
303.15 K, x1 = 0.6995 | 1184.8 | 309
303.15 K, x1 = 0.7883 | 1202 | 335
303.15 K, x1 = 0.8797 | 1217.1 | 361.6
303.15 K, x1 = 0.9388 | 1225.7 | 378.8
308.15 K, x1 = 0.0157 | 801 | 120.7
308.15 K, x1 = 0.05 | 847.7 | –
308.15 K, x1 = 0.0523 | 850.3 | 129.7
308.15 K, x1 = 0.0978 | 901.3 | 141.6
308.15 K, x1 = 0.0991 | 902.6 | –
308.15 K, x1 = 0.1944 | 984.4 | 167.7
308.15 K, x1 = 0.3073 | 1052.6 | 198.8
308.15 K, x1 = 0.4109 | 1098.7 | 227.9
308.15 K, x1 = 0.5084 | 1132.5 | 255.8
308.15 K, x1 = 0.5927 | 1156.4 | 280.3
308.15 K, x1 = 0.6995 | 1181.4 | 311.1
308.15 K, x1 = 0.7883 | 1198.5 | 337.2
308.15 K, x1 = 0.8797 | 1213.7 | 364
308.15 K, x1 = 0.9388 | 1222.3 | 381.3
313.15 K, x1 = 0.0157 | 796.7 | 122.8
313.15 K, x1 = 0.05 | 843.5 | –
313.15 K, x1 = 0.0523 | 846.1 | 131.6
313.15 K, x1 = 0.0978 | 897.3 | 143.2
313.15 K, x1 = 0.0991 | 898.5 | –
313.15 K, x1 = 0.1944 | 980.6 | 169.2
313.15 K, x1 = 0.3073 | 1048.8 | 200.4
313.15 K, x1 = 0.4109 | 1095 | 229.6
313.15 K, x1 = 0.5084 | 1128.9 | 257.6
313.15 K, x1 = 0.5927 | 1152.9 | 282.3
313.15 K, x1 = 0.6995 | 1177.9 | 313.3
313.15 K, x1 = 0.7883 | 1195.1 | 339.5
313.15 K, x1 = 0.8797 | 1210.2 | 366.5
313.15 K, x1 = 0.9388 | 1218.9 | 383.9
318.15 K, x1 = 0.0157 | 792.3 | 125
318.15 K, x1 = 0.05 | 839.2 | –
318.15 K, x1 = 0.0523 | 841.9 | 133.6
318.15 K, x1 = 0.0978 | 893.2 | 145
318.15 K, x1 = 0.0991 | 894.4 | –
318.15 K, x1 = 0.1944 | 976.6 | 170.9
318.15 K, x1 = 0.3073 | 1045.1 | 202.2
318.15 K, x1 = 0.4109 | 1091.4 | 231.5
318.15 K, x1 = 0.5084 | 1125.3 | 259.7
318.15 K, x1 = 0.5927 | 1149.3 | 284.5
318.15 K, x1 = 0.6995 | 1174.4 | 315.6
318.15 K, x1 = 0.7883 | 1191.7 | 342
318.15 K, x1 = 0.8797 | 1206.9 | 369.1
318.15 K, x1 = 0.9388 | 1215.5 | 386.7

[3]
Details | excess molar enthalpy [kJ/mol]
x1 = 0.0486 | 0.522
x1 = 0.1198 | 1.09
x1 = 0.1961 | 1.26
x1 = 0.2952 | 1.32
x1 = 0.3917 | 1.24
x1 = 0.4937 | 1.15
x1 = 0.6087 | 0.922
x1 = 0.7017 | 0.715
x1 = 0.7963 | 0.494
x1 = 0.8774 | 0.306

CCn1cc[n+](C)c1.O=S(=O)([O-])C(F)(F)F [1-ethyl-3-methylimidazolium trifluoromethanesulfonate] + CCO
Details | mass density, [1] [kg/m3] | molar heat capacity at constant pressure, [2] [J/K/mol]
293.15 K, x1 = 0.0523 | 883.9 | 125.1
293.15 K, x1 = 0.1 | 953 | 138.9
293.15 K, x1 = 0.1959 | 1059.7 | 164.1
293.15 K, x1 = 0.2927 | 1138.5 | 188.3
293.15 K, x1 = 0.3819 | 1194.5 | 209.7
293.15 K, x1 = 0.4917 | 1248.4 | 236
293.15 K, x1 = 0.5983 | 1289.4 | 261.7
293.15 K, x1 = 0.6899 | 1318.8 | 283.9
293.15 K, x1 = 0.7829 | 1343.7 | 306.8
293.15 K, x1 = 0.8784 | 1365.6 | 330.5
298.15 K, x1 = 0.0523 | 879.6 | 126.8
298.15 K, x1 = 0.1 | 948.7 | 140.4
298.15 K, x1 = 0.1959 | 1055.4 | 165.4
298.15 K, x1 = 0.2927 | 1134.1 | 189.5
298.15 K, x1 = 0.3819 | 1190.2 | 211
298.15 K, x1 = 0.4917 | 1244.1 | 237.4
298.15 K, x1 = 0.5983 | 1285.1 | 263.3
298.15 K, x1 = 0.6899 | 1314.5 | 285.4
298.15 K, x1 = 0.7829 | 1339.4 | 308.5
298.15 K, x1 = 0.8784 | 1361.4 | 332.5
303.15 K, x1 = 0.0523 | 875.3 | 128.4
303.15 K, x1 = 0.1 | 944.4 | 142
303.15 K, x1 = 0.1959 | 1051.1 | 166.7
303.15 K, x1 = 0.2927 | 1129.8 | 190.7
303.15 K, x1 = 0.3819 | 1185.9 | 212.3
303.15 K, x1 = 0.4917 | 1239.9 | 238.8
303.15 K, x1 = 0.5983 | 1280.9 | 264.9
303.15 K, x1 = 0.6899 | 1310.3 | 286.9
303.15 K, x1 = 0.7829 | 1335.2 | 310.3
303.15 K, x1 = 0.8784 | 1357.2 | 334.5
308.15 K, x1 = 0.0523 | 871 | 130.3
308.15 K, x1 = 0.1 | 940.2 | 143.8
308.15 K, x1 = 0.1959 | 1046.8 | 168.1
308.15 K, x1 = 0.2927 | 1125.6 | 192.1
308.15 K, x1 = 0.3819 | 1181.6 | 213.8
308.15 K, x1 = 0.4917 | 1235.6 | 240.4
308.15 K, x1 = 0.5983 | 1276.7 | 266.5
308.15 K, x1 = 0.6899 | 1306.1 | 288.5
308.15 K, x1 = 0.7829 | 1331 | 312.2
308.15 K, x1 = 0.8784 | 1353 | 336.6
313.15 K, x1 = 0.0523 | 866.7 | 132.2
313.15 K, x1 = 0.1 | 935.8 | 145.5
313.15 K, x1 = 0.1959 | 1042.5 | 169.5
313.15 K, x1 = 0.2927 | 1121.3 | 193.5
313.15 K, x1 = 0.3819 | 1177.3 | 215.2
313.15 K, x1 = 0.4917 | 1231.4 | 241.9
313.15 K, x1 = 0.5983 | 1272.4 | 268.2
313.15 K, x1 = 0.6899 | 1301.9 | 290.1
313.15 K, x1 = 0.7829 | 1326.8 | 314.1
313.15 K, x1 = 0.8784 | 1348.8 | 338.7
318.15 K, x1 = 0.0523 | 862.2 | 134.2
318.15 K, x1 = 0.1 | 931.4 | 147.4
318.15 K, x1 = 0.1959 | 1038.1 | 171.1
318.15 K, x1 = 0.2927 | 1116.9 | 195
318.15 K, x1 = 0.3819 | 1173 | 216.9
318.15 K, x1 = 0.4917 | 1227.1 | 243.6
318.15 K, x1 = 0.5983 | 1268.2 | 270
318.15 K, x1 = 0.6899 | 1297.7 | 291.9
318.15 K, x1 = 0.7829 | 1322.6 | 316.1
318.15 K, x1 = 0.8784 | 1344.7 | 340.9

[3]
Details | excess molar enthalpy [kJ/mol]
x1 = 0.1271 | 1.22
x1 = 0.2489 | 1.72
x1 = 0.3752 | 1.88
x1 = 0.5006 | 1.77
x1 = 0.6176 | 1.52
x1 = 0.7501 | 1.09
x1 = 0.869 | 0.599

Source: the NIST ThermoML archive (doi:10.1016/j.fluid.2008.09.004)
